Data taken from US8980919B2, “Combination of a carbostyril and carnitine” (Otsuka Pharmaceutical Co., Ltd., priority 2008, dated 2015).

Tested on: chronic cerebral ischemia model rats
Assay: Immunohistological evaluation of brain in chronic cerebral ischemia model rats (ligation of both carotid arteries)
Type: in vivo, rat
Conditions: for number of GST-pi positive oligodendrocyte in the callosum: after LBCCA, L-carnitine 600 mg/kg/day, cilostazol 50 mg/kg/day, FIG. 2; for number of GST-pi positive oligodendrocyte in the callosum / 8-OHdG positive cell (cell dysfunction by peroxidation): vs vehicle; for 8-OHdG positive cell (cell dysfunction by peroxidation): day 7 to day 28 after LBCCA, FIG. 3; for 8-OHdG positive cell (cell dysfunction by peroxidation) / number of ss-DNA positive cells (marker of apoptosis) / HNE staining positive cells (peroxidative metabolism): P<0.01; for number of ss-DNA positive cells (marker of apoptosis) / HNE staining positive cells (peroxidative metabolism): vs vehicle group; for number of ss-DNA positive cells (marker of apoptosis): FIG. 5; for HNE staining positive cells (peroxidative metabolism): FIG. 4
Procedure: The cerebroprotective action of cilostazol for inflammatory reaction due to oxidative stress and glial cell was studied using chronic cerebral ischemia model rats as cerebrovascular dementia model animals. Using Wister rats (male, aged 7-8 weeks, body weights of 150-200 g), chronic cerebral ischemia model rats are prepared according to the method of […] et al. (Acta Neuropathol (Berl). 87, 484-492, 1993), i.e. by double-ligating both […] of the rats. As a physiological evaluation, body temperature and body fluid of the rats before/after the preparation are measured, and the cerebral blood flow thereof is analyzed with a Doppler device. To the rats of each administration group of vehicle, L-carnitine, cilostazol, and L-carnitine/cilostazol combination, each defined administration is done every day by natural ingestion from the day when the preparation of ischemia was completed to the final day for the experimental evaluation. […] After brain parenchyma of the rats is sliced in 20 μm, HE and KB stainings and several immunostainings are carried out. The dosage of each trial is 600 mg/kg/day for L-carnitine and 50 mg/kg/day for cilostazol. Regarding glial cell, the astrocyte is evaluated with an antibody for GFAP, the microglia is evaluated with an antibody for Iba-1, and the oligodendrocyte is evaluated with an antibody for glutathione S-transferase p^+ (GST-pi). And, the oxidative stress is evaluated with an antibody for anti 4-hydroxy-2-nonenal (HNE).

O=C1CCc2cc(OCCCCc3nnnn3C3CCCCC3)ccc2N1 [cilostazol, 6-[4-(1-cyclohexyl-1H-tetrazol-5-yl)butoxy]-3,4-dihydrocarbostyril]
number of GST-pi positive oligodendrocyte in the callosum: increased more than that of the vehicle group
8-OHdG positive cell (cell dysfunction by peroxidation): significantly decreased
number of ss-DNA positive cells (marker of apoptosis) (days 14, 21 and 28): significantly decreased compared with the vehicle group
HNE staining positive cells (peroxidative metabolism): tended to significantly decrease compared with the vehicle group

C[N+](C)(C)C[C@H](O)CC(=O)[O-] [carnitine, L-carnitine]
number of GST-pi positive oligodendrocyte in the callosum: increased more than that of the vehicle group
8-OHdG positive cell (cell dysfunction by peroxidation): significantly decreased
number of ss-DNA positive cells (marker of apoptosis) (day 14): significantly decreased compared with the vehicle group
HNE staining positive cells (peroxidative metabolism): tended to significantly decrease compared with the vehicle group
